Key:
[1] = target: steroid 5α-reductase; assay: in vitro steroid 5α-reductase inhibitory activity using ventral prostate tissue from male rats; format: biochemical; conditions: rat ventral prostate particulate; [3H]-testosterone substrate, pH 6.5, 37° C., 30 minutes
Source text: The compounds of the formula (I) may be tested in vitro for steroid 5α-reductase inhibitory activity using prostate tissue from rats or humans as follows:
(i) The compounds of the formula (I) may be tested for their potency in inhibiting rat steroid 5α-reductase using ventral prostate tissue from male rats. In determining inhibitory potency against rat prostatic 5α-reductase the following procedure was employed:
Rat prostates were minced into small pieces. The tissue was homogenised in Buffer A (20 mM sodium phosphate, pH 6.5, buffer containing 0.32M sucrose and 1 mM dithiothreitol) with a Brinkman Polytron (Kinematica, Luzern, GmBH), and then homogenised with a motor driven (1000 rpm) Potter Elvehjem (teflon-to-glass) homogeniser. Prostate particles were obtained by centrifugation at 105,000 G for 60 minutes. The pellet was washed in 4 volumes of Buffer A and recentrifuged at 105,000 G. The resulting pellet was dispersed in Buffer A (1 ml per g of prostate tissue originally used) with a motor driven Potter Elvehjem homogeniser as described above. The particulate suspension was stored as 1 ml samples at -70° C.
The following components, dissolved in Buffer B (40 mM sodium phosphate buffer, pH 6.5), were added to test tubes: 500 μl of [^3 H]-testosterone (1 μCi, 1 nmol; Du Pont, NEN Research Products, Stevenage, U.K.), 100 μl of 0.5 mM NADPH, a compound of the formula (I) dissolved in 5 μl of dimethyl sulphoxide, and Buffer B to give a final reaction volume of 1 ml. The mixture was warmed to 37° C. and the reaction started by addition of an aliquot of prostate particulate suspension. The reaction mixture was incubated at 37° C. for 30 minutes and then quenched by addition with vigorous mixing of 2 ml of ethyl acetate containing 20 μg each of testosterone and 5α-dihydrotestosterone as carriers. The aqueous and organic layers were separated by centrifugation at 2000 G for 10 minutes. The organic layer was transferred to a second test tube and evaporated to dryness under nitrogen. The residue was dissolved in 50-80 μl of absolute ethanol and spotted onto a silica gel 60 F254 TLC plate (E. Merck, Darmstadt, Germany) and developed in chloroform:acetone (185:15).
The radiochemical content in the bands of the substrate (testosterone) and the product (5α-dihydrotestosterone) were determined with a RITA Radio TLC Analyser (Raytest Instruments Ltd., Sheffield, U.K.). The percent of recovered radiolabel converted to 5α-dihydrotestosterone was calculated and used to determine enzyme activity. All incubations were conducted so that no more than 15% of substrate (testosterone) was converted to product.
The experimentally obtained data for a range of inhibitor concentrations was computer fitted to a sigmoidal dose-response curve and concentrations of compound giving 50% inhibition of 5α-reductase activity (IC50 's) were calculated using a SIGFIT program (De Lean, A., Munson, P. J. and Rodbard, D., American Journal of Physiology, 235, E97 (1978)).
A selection of compounds of the formula (I) was tested in vitro for steroid 5α-reductase inhibitory activity using ventral prostate tissue from male rats according to the procedure outlined on pages 35 to 37 of the description.

[2] = tested on: mice; assay: Toxicity Study, oral administration to mice; format: in vivo; conditions: up to a dose of 1000 mg/kg, throughout the duration of the study

`CC(C)Cc1ccc(C2(C)Oc3ccc(C(=O)c4cn(CCCC(=O)O)c5ccccc45)cc3O2)cc1` (racemic) [Example 2, 4-[3-([2-methyl-2-(4-[2-methylpropyl]phenyl)-1,3-benzodioxolan-5-yl]carbonyl)indol-1-yl]butanoic acid] showed an IC50 [1] of 11.4 nM.
`CC(C)Cc1ccc(C2(C)Oc3ccc(C(=O)c4cn(CCCC(=O)O)c5ccccc45)cc3O2)cc1` (single isomer, unassigned; (-)) [Example 4, (-)-4-[3-([2-methyl-2-(4-[2-methylpropyl]phenyl)-1,3-benzodioxolan-5-yl]carbonyl)indol-1-yl]butanoic acid] was tested, and the IC50 [1] was 10.3 nM and the appearance and behaviour [2] was “normal appearance and behaviour”.
`O=C(O)CCCn1cc(C(=O)c2ccc3c(c2)OC(c2ccccc2)(c2ccccc2)O3)c2ccccc21` [Example 1] was tested, and the IC50 [1] was 2.7 nM.
In the case of `CCCc1ccc(C2(c3ccc(CCC)cc3)Oc3ccc(C(=O)c4cn(CCCC(=O)O)c5ccccc45)cc3O2)cc1` [Example 5], the IC50 [1] is reported as 33.7 nM.
Work on `O=C(O)CCCn1cc(C(=O)c2ccc3c(c2)OC(c2ccc(Cl)cc2)(c2ccc(Cl)cc2)O3)c2ccccc21` [Example 6] yielded an IC50 [1] of 15.6 nM.
`O=C(O)CCCn1cc(C(=O)c2ccc3c(c2)OC(c2ccc(F)cc2)(c2ccc(F)cc2)O3)c2ccccc21` [Example 7] showed an IC50 [1] of 10.7 nM.
With `CCCCC1(c2ccc(CCC)cc2)Oc2ccc(C(=O)c3cn(CCCC(=O)O)c4ccccc34)cc2O1` (centres unmarked) [Example 8] the IC50 [1] was 2.9 nM.
Work on `CC1(c2ccc(OCc3ccccc3)cc2)Oc2ccc(C(=O)c3cn(CCCC(=O)O)c4ccccc34)cc2O1` (centres unmarked) [Example 9] yielded an IC50 [1] of 67.5 nM.
Work on `O=C(O)CCCn1cc(C(=O)c2ccc3c(c2)OC2(CCCc4ccccc42)O3)c2ccccc21` (centres unmarked) [Example 10] yielded an IC50 [1] of 7.91 nM.
`CC1(c2ccccc2)Oc2ccc(C(=O)c3cn(CCCC(=O)O)c4ccccc34)cc2O1` (centres unmarked) [Example 14] gave an IC50 [1] of 21.1 nM.
`O=C(O)CCCn1cc(C(=O)c2ccc3c(c2)OC(c2cccs2)(c2cccs2)O3)c2ccccc21` [Example 15] showed an IC50 [1] of 5.29 nM.
For `CC1(C2CCCCC2)Oc2ccc(C(=O)c3cn(CCCC(=O)O)c4ccccc34)cc2O1` (centres unmarked) [Example 19], the IC50 [1] was 11 nM.
With `CCCc1ccc(C2(CC)Oc3ccc(C(=O)c4cn(CCCC(=O)O)c5ccccc45)cc3O2)cc1` (centres unmarked) [Example 27] the IC50 [1] was 1.41 nM.
Work on `COc1ccc(C2(C)Oc3ccc(C(=O)c4cn(CCCC(=O)O)c5ccccc45)cc3O2)cc1` (centres unmarked) [Example 29] yielded an IC50 [1] of 3.67 nM.
In the case of `O=C(O)CCCn1cc(C(=O)c2ccc3c(c2)OC2(CCC(c4ccccc4)C2)O3)c2ccccc21` (centres unmarked) [Example 31], the IC50 [1] is reported as 5.56 nM.
Compound `O=C(O)CCCCn1cc(C(=O)c2ccc3c(c2)OC(c2ccccc2)(c2ccccc2)O3)c2ccccc21` [Example 34] has an IC50 [1] of 264 nM.
`O=C(O)CCCn1cc(C(=O)Cc2ccc3c(c2)OC(c2ccccc2)(c2ccccc2)O3)c2ccccc21` [Example 35] gave an IC50 [1] of 42.6 nM.
For `CC(C)Cc1ccc(C2(C)Oc3ccc(CC(=O)c4cn(CCCC(=O)O)c5ccccc45)cc3O2)cc1` (centres unmarked) [Example 36], the IC50 [1] was 251 nM.
Compound `O=C(O)CCCn1cc(C(=O)Cc2ccc3c(c2)OC(c2ccc(Cl)cc2)(c2ccc(Cl)cc2)O3)c2ccccc21` [Example 37] has an IC50 [1] of 100 nM.
`Cc1c(C(=O)c2ccc3c(c2)OC(c2ccccc2)(c2ccccc2)O3)c2ccccc2n1CCCC(=O)O` [Example 39] was tested, and the IC50 [1] was 270 nM.
`Cc1c(C(=O)c2ccc3c(c2)OC(C)(c2ccc(CC(C)C)cc2)O3)c2ccccc2n1CCCC(=O)O` (centres unmarked) [Example 40] gave an IC50 [1] of 260 nM.
Work on `CCCc1ccc(C2(c3ccc(OC)cc3)Oc3ccc(C(=O)c4cn(CCCC(=O)O)c5ccccc45)cc3O2)cc1` (centres unmarked) [Example 45] yielded an IC50 [1] of 7.84 nM.

Source: US5767139A, “Indoles which have steroid 5-α reductase inhibitory activity” (Pfizer, Inc., priority 1992, dated 1998)
